Like-named read-outs stand apart in the source and are kept apart here.
Legend:
[1] = test system: C4-2 castrate resistant prostate cancer (CRPC) cells; assay: Relative viability after drug dose matrix (CellTiter-Glo, Bliss Independence) in C4-2 cells; type: cell-based; conditions: for effect of the combination of TH588 with a Plk1 inhibitor: each Plk1 inhibitor in combination with TH588, relative viability
Experimental: All cell lines were cultured in a humidified incubator at 37° C. and with 5% CO2, were maintained sub-confluent and used for no more than 20 passages. Media was supplemented with 10% fetal bovine serum (FBS), contained 2 mM glutamine and lacked antibiotics, unless otherwise noted. A549, BT-20, CCD-1112sk, CCD-18co, CFPAC1, HCT 116, HeLa, HT-29, HT55, MCF7, MDA-MB-157, MDA-MB-231, MDA-MB-415, MDA-MB-436, MDA-MB-453, MDA-MB-468, SW48, T98G, U-2 OS, U-87 MG, CAOV3, COV362, and JIMT1 cells were grown in DMEM; 22RV1, AU565, C4-2, CAL33, COL0205,HCC38, HCT-15, KYSE150, LNCaP, LOVO, NCI-H1299, PC-3, ZR-75-1, HCC1419, HCC1569, HCC1954, ZR7530, OVCAR-4, OVCAR8 cells were grown in RPMI 1640; HT1197, HT1376, J82, UMUC3 cells were grown in MEM; OV90, TOV122D, TOV21G cells were grown in 1:1 MCDB105:Medial99 15% FBS; 59M, OAW28, OAW42 cells were grown in Advanced DMEM 0.023 IU/ml insulin; ES2, SKOV3 cells were grown in McCoy's 5A; JHOS2, JHOS4 cells were grown in 1:1 DMEM:HamF12; HUVEC cells were grown in EBM with EGM™-2 BULLETKIT™
(§1) For dose response experiments and experiments that examine synergy as a measure of change in relative viability, cells were grown in 384-well plates in triplicate. The following day the cells were subjected to a drug dose matrix that consisted of increasing concentrations of a Plk inhibitor, increasing concentrations of a microtubule polymerization inhibitor, and all pairwise combinations. Drugs were dissolved in DMSO and diluted in the appropriate cell growth media while maintaining a constant final concentration of DMSO. After five days, relative viability was assessed using […]-GLO™ (Promega) Luminescent Cell Viability Assay according to the manufacturer's recommendations. Luminescence was measured using an […]™ M200 Pro plate reader (Tecan Group Ltd.). […] The dose response plots (for example FIG. 1A) show sensitivity to increasing concentrations of a microtubule polymerization inhibitor in the absence or presence of a constant amount of Plk inhibitor. Bars represent the standard error of the mean. The concentration of Plk inhibitor chosen to presented was based on a ˜20-30% reduction of viability when that drug was used at that dose in isolation. The entire amount of greater-than-additive response observed in the dose matrix is the integrated volume between the observed and expected surfaces generated by the response matrix and is also known as Bliss Volume. Bliss Volume synergy metrics are presented in FIG. 3 as the fractional change in volume between the expected and observed response surfaces.

HCT 116 xenografts = conditions: cited from earlier work
BxPC-3 = conditions: twice-weekly; cited from earlier work
A549 = conditions: twice-weekly; cited from earlier work
[2] = cited from earlier work; for maximum tolerated dose: elderly patients with relapsed/refractory AML
mouse xenograft models = conditions: 10 mg/kg and 20 mg/kg on days 1 and 28; cited from earlier work
[3] = biological target: several tyrosine kinases and cyclin-dependent kinase 1; conditions: read-out: IC50, tyrosine kinases and Cdk1; cited from earlier work
[4] = test system: Bel-7402, MCF-7, and MIA-PaCa cells; conditions: 250 mg/kg; cited from earlier work
BT20 cells = conditions: 200 mg/kg; cited from earlier work
Plk1 = Plk1 (Homo sapiens, UniProt P53350); conditions: cited from earlier work
[5] = test system: HT-29 human colorectal tumors; conditions: cited from earlier work
C4-2 CRPC cells [6] = assay: Flow cytometry for mitotic cells (phospho-Ser10 Histone H3); type: cell-based; conditions: TH588 with Plk1 inhibitor BI2536, 0 to 48 hours, FIG. 1B
Experimental: (§2) C4-2 CRPC cells were plated in 6-well plates at a density of 300,000 cells per well and a total volume of 3 mls. The next day drugs were diluted in the appropriate growth media while maintaining a constant concentration of DMSO and added to the wells. After the indicated amount of time, cells were harvested by trypsinization. The media, trypsin and PBS wash were collected together to avoid loss of loosely attached or detached cells. Cells were fixed in 4% formaldehyde in PBS for 15 minutes, washed with PBS containing 1% bovine serum albumin (PBS-BSA), and then stored in methanol at −20° C. overnight. Cells were then washed twice in PBS-BSA 0.1% Tween-20, incubated with primary antibodies overnight at 4° C., washed with PBS-BSA 0.1% Tween-20 and incubated for 1 hour with fluorescent-dye conjugated secondary antibodies (diluted 1:200, Alexa Fluor, Molecular Probes) at room temperature for 1 hour. Primary antibodies included anti-phospho-serine 10 histone H3 (clone 3H10, Millipore) and anti-active caspase-3 (clone C92-605, BD Pharmingen). The fixed cells were then washed with PBS-BSA 0.1% Tween-20 and resuspended in PBS containing 1 μg/ml 4,6-diamidino-2-phenylindole (DAPI, Molecular Probes) to stain DNA and analyzed using a BD™ LSRII flow cytometer (Becton Dickinson) and the FLOWJO™ software package. Shown is the average of three replicates±standard error of the mean.

C4-2 CRPC cells [7] = assay: Flow cytometry for apoptotic cells (cleaved caspase-3); type: cell-based; conditions: TH588 with Plk1 inhibitor BI2536, 0 to 48 hours, FIG. 1C
Experimental: as §2

[8] = test system: C4-2 CRPC xenograft tumors; assay: Microwell tumor-implantable device, apoptotic index in xenograft tumors; type: in vivo, mice; conditions: half-dose BI2536 with half-dose TH588 versus monotherapy wells, 24 hours after implantation, p<0.01, FIG. 2B
Experimental: C4-2 CRPC xenograft tumors were grown in four to six week old castrated male NCR nude mice. Five million C4-2 cells in 200 μl serum free media, mixed 1:1 with growth factor reduced […]® (Invitrogen) were injected into the hind flank subcutaneously using a 23 gauge needle. Tumors took four to eight weeks to grow. Microdose drug delivery devices were manufactured, implanted, and analyzed as described by Jonas, O., et al. Science Translational Medicine, 7(284): 284ra57 (2015). […] Tumors were excised 24 hours after device implantation, fixed in 10% formalin for 24 hours, and embedded in paraffin. Sections were stained with cleaved caspase-3 antibody (Cell Signaling Technologies, 9664) followed by detection with horseradish peroxidase conjugated secondary antibody and diaminobenzidine with hematoxylin used as a counterstain. Images were viewed using an EVOS® Cell Imaging System (Invitrogen) microscope, and scored using ImageJ in a blinded manner. Apoptotic index (Al) was calculated as the percentage of cells that were cleaved caspase-3-positive within […] of the reservoir-tissue interface.

[9] = test system: cancer cell lines of various origin; assay: Combination synergy (Bliss Volume) in cancer cell lines of various origin; type: cell-based; conditions: TH588 with a Plk1 inhibitor; approximately thirty cell lines, in the majority of these; FIG. 3
Experimental: (§3) All cell lines were cultured in a humidified incubator at 37° C. and with 5% CO2, were maintained sub-confluent and used for no more than 20 passages. Media was supplemented with 10% fetal bovine serum (FBS), contained 2 mM glutamine and lacked antibiotics, unless otherwise noted. […]
(§4) For dose response experiments and experiments that examine synergy as a measure of change in relative viability, cells were grown in 384-well plates in triplicate. […] After five days, relative viability was assessed using […]-GLO™ (Promega) Luminescent Cell Viability Assay according to the manufacturer's recommendations. Luminescence was measured using an […]™ M200 Pro plate reader (Tecan Group Ltd.). […]

non-cancer cells = assay: Combination synergy (Bliss Volume) in non-cancer cell lines; type: cell-based; conditions: TH588 with a Plk1 inhibitor; FIG. 3
Experimental: as §3, §4

tubulin = assay: Microtubule polymerization in vitro; type: biochemical
tumor cells = assay: Tumor cell killing by other microtubule polymerization inhibitors with Plk1 inhibitors; type: cell-based; conditions: in combination with Plk1 inhibitors
Experimental: as §1, with “Bliss Volume synergy metrics are presented in FIG. 3 as the fractional change in volume between the expected and observed response surfaces.” left out

cell mitosis = conditions: read-out: EC50, inhibition of cell mitosis; cited from earlier work
[10] = test system: Cdc25C-T96 phosphorylation; conditions: direct readout of PLK1 inhibition; cited from earlier work
[11] = cited from earlier work

Plk1, sequence (P53350 whole entry): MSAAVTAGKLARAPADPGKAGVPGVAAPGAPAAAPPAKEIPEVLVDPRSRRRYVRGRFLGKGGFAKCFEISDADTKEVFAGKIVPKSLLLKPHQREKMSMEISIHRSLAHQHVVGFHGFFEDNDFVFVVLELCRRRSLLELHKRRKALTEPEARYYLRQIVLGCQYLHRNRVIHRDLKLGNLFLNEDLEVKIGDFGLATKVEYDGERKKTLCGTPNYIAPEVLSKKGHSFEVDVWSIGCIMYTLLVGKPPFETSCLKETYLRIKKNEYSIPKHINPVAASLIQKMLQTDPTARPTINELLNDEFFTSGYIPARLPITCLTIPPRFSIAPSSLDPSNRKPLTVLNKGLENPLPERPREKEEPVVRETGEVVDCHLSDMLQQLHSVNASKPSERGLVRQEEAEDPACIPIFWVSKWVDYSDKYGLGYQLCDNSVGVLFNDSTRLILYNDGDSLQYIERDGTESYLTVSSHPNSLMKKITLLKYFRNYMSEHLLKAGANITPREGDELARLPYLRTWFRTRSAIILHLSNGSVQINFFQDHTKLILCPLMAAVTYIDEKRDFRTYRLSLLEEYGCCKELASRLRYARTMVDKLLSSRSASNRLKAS

Compound: CC[C@@H]1C(=O)N(C)c2cnc(Nc3ccc(C(=O)NC4CCN(C)CC4)cc3OC)nc2N1C1CCCC1 [BI2536]
- effect of the combination of TH588 with a Plk1 inhibitor [1]: more than additive
- T/C, HCT 116 xenografts (HCT 116 xenografts; 50 mg/kg once per week): 15%
- T/C, HCT 116 xenografts (HCT 116 xenografts; 50 mg/kg twice per week): 0.3%
- T/C, BxPC-3 model (BxPC-3): 5%
- T/C, A549 model (A549): 14%
- MTD suggested by other studies ([2]; Frost et al.): 50 to 70 mg
- maximum tolerated dose ([2]; day 1 schedule): 350 mg
- maximum tolerated dose ([2]; days 1+8 schedule): 200 mg
- maximum tolerated dose (MTD) in combination with pemetrexed ([2]; intravenous, NSCLC, day 1 every 3 weeks): 300 mg
- dose at which dose-limiting toxicities occurred ([2]; with 500 mg/m^2 pemetrexed, NSCLC, day 1 every 3 weeks, two DLT): 325 mg

Compound: C[C@@H](Oc1cc(-n2cnc3ccc(CN4CCN(C)CC4)cc32)sc1C(N)=O)c1ccccc1C(F)(F)F [GSK461364]
- effect of the combination of TH588 with a Plk1 inhibitor [1]: more than additive
- final recommended phase II dose ([2]; intravenously, schedule A (days 1, 8, and 15 of 28-day cycle)): 225 mg
- incidence of venous thrombotic emboli (VTE) ([2]; phase I, advanced solid tumors): 20%

Compound: COc1ccc(S(=O)(=O)Nc2ccccc2/C=C/c2cc[n+]([O-])cc2)cc1 [HMN-176]
- antitumor activity in mouse xenograft models (mouse xenograft models): potent antitumor activity

Compound: COc1ccc(S(=O)(=O)N(C(C)=O)c2ccccc2/C=C/c2cc[n+]([O-])cc2)cc1 [HMN-214]
- MTD ([2]; 5 consecutive days every 4 weeks, based on previous patient treatment load): 18 to 30 mg/m^2
- doses at which DLTs were observed ([2]; 5 consecutive days every 4 weeks): 24 to 48 mg/m^2
- maximum tolerated dose and recommended dose ([2]; continuous 21-day dosing every 28 days): 8.0 mg/m^2/d
- dose with dose-limiting toxicities ([2]; continuous 21-day dosing every 28 days, myalgia/bone pain syndrome and hyperglycemia): 9.9 mg/m^2/d

Compound: COc1cc(OC)c(/C=C/S(=O)(=O)Cc2ccc(OC)c(NCC(=O)[O-])c2)c(OC)c1.[Na+] [ON 01910]
- IC50 [3]: 18 to 260 nM
- tumor growth in xenograft models [4]: inhibited tumor growth
- tumor growth in xenograft model (BT20 cells): inhibition of tumor growth
- MTD ([2]; i.v., days 1, 4, 8, 11, 15, and 18 in 28-day cycles, advanced solid tumors): 3,120 mg

Compound: COc1cc(C(=O)N[C@H]2CC[C@H](N3CCN(C)CC3)CC2)ccc1Nc1ncc2c(n1)N(C1CCCC1)CC1(CC1)C(=O)N2C [Plogosertib]
- IC50 (Plk1): 3 nM

Compound: COc1cc(C(=O)NC2CCN(C)CC2)ccc1Nc1ncc2c(n1)N(C1CCCC1)CC(F)(F)C(=O)N2C [RO3280]
- antitumor activity when dosed more frequently ([5]; dosed more frequently): complete tumor regression
- tumor growth inhibition ([5]; once weekly at 40 mg/kg): 72%

Compound: Nc1nc(NC2CC2)cc(-c2cccc(Cl)c2Cl)n1 [TH588]
- effect of killing cancer cells by the combination of Plk1 inhibitors with TH588, versus each alone ([1]; C4-2 CRPC cells, TH588 with BI2536, five days, Bliss Independence model, FIG. 1A): more than additive
- mitotic arrest with the combination (C4-2 CRPC cells [6]): greater than additive
- apoptotic cancer cell killing with the combination (C4-2 CRPC cells [7]): greater than additive
- effect on tumor cell killing in vivo (cleaved caspase-3 positive cells) [8]: more-than-additive
- effect of tumor cell killing using the combination treatment [9]: more than additive
- effect of killing by the drug combination in non-cancer cells (non-cancer cells): not more than additive
- microtubule polymerization in vitro (tubulin): inhibits microtubule polymerization

Compound: COC(=O)Nc1nc2ccc(C(=O)c3cccs3)cc2[nH]1 [nocodazole]
- effect when used with Plk1 inhibitors in killing tumor cells (tumor cells): more-than-additive effect

Compound: CN1CCN(c2ccc(OC(F)(F)F)c(Nc3ncc4c(n3)-c3c(c(C(N)=O)nn3CCO)CC4)c2)CC1 [onvansertib]
- effect of the combination of TH588 with a Plk1 inhibitor [1]: more than additive

Compound: CC[C@]1(O)C[C@@H]2C[N@@](CCc3c([nH]c4ccccc34)[C@@](C(=O)OC)(c3cc4c(cc3OC)N(C=O)[C@H]3[C@@](O)(C(=O)OC)[C@H](OC(C)=O)[C@]5(CC)C=CCN6CC[C@]43[C@@H]65)C2)C1 [vincristine]
- effect when used with Plk1 inhibitors in killing tumor cells (tumor cells): more-than-additive effect

Compound: MLN0905
- EC50 (cell mitosis): 9 nM
- EC50 [10]: 29 nM
- maximum tolerated dose ([11]; QD (daily) schedule): 6.25 mg/kg
- maximum tolerated dose ([11]; QDx3/wk (3-days on/4-days off) schedule): 14.5 mg/kg

Reference: patent publication US20230263783A1, “CANCER TREATMENT BY COMBINED INHIBITION OF POLO-LIKE KINASE AND MICROTUBULE POLYMERIZATION” (Massachusetts Institute of Technology, priority 2022, published 2023)
